Numbered stars: 1 amine (or outer) side, 2 acyl side, 3 side chain; on linkers, the order of the positions; unused ones are H or OH. Bridge positions count the residues as written; N and C are the ends. Square brackets hold non-standard residues; d marks the D form. Peptide text beside a SMILES is read from it. Trp(βS-Me,7-OMe) = COc1cccc2c([C@H](C)[C@H](N)C(=O)O)c[nH]c12; Trp(1-CH2COOH) = N[C@@H](Cc1cn(CC(=O)O)c2ccccc12)C(=O)O; Trp(βS-Me) = C[C@@H](c1c[nH]c2ccccc12)[C@H](N)C(=O)O; Phe(4-NHCONH2) = NC(=O)Nc1ccc(C[C@H](N)C(=O)O)cc1; Trp(7-Br) = N[C@@H](Cc1c[nH]c2c(Br)cccc12)C(=O)O; Trp(7-CN) = N#Cc1cccc2c(C[C@H](N)C(=O)O)c[nH]c12; Trp(7-Cl) = N[C@@H](Cc1c[nH]c2c(Cl)cccc12)C(=O)O; Phe(3-CONH2) = NC(=O)c1cccc(C[C@H](N)C(=O)O)c1; Phe(4-CONH2) = NC(=O)c1ccc(C[C@H](N)C(=O)O)cc1; Phe(4-COOH) = N[C@@H](Cc1ccc(C(=O)O)cc1)C(=O)O; Trp(7-aza) = N[C@@H](Cc1c[nH]c2ncccc12)C(=O)O; dPro(4S-NH2) = N[C@@H]1CN[C@@H](C(=O)O)C1; Pip(5R-OH) = O=C(O)[C@@H]1CC[C@@H](O)CN1; αMeW = C[C@](N)(Cc1c[nH]c2ccccc12)C(=O)O; X1 = O=C([C@@H]1CC[C@H](N[*:1])C1)[*:2]; Orn(N3) = [N-]=[N+]=NCCC[C@H](N)C(=O)O; Pip(4-aza) = O=C(O)[C@@H]1CNCCN1; 4Pal = N[C@@H](Cc1ccncc1)C(=O)O; NMeE = CN[C@@H](CCC(=O)O)C(=O)O; dHyp = O=C(O)[C@H]1C[C@H](O)CN1; X61 = O=C(CN(CCCO)[*:1])[*:2]; Ahp(2) = CCCCC[C@H](N)C(=O)O; Pip = O=C(O)[C@@H]1CCCCN1; αMeS = C[C@](N)(CO)C(=O)O; Nle = CCCC[C@H](N)C(=O)O; Dap = NC[C@H](N)C(=O)O; Sar = CNCC(=O)O
Molecular target: T1, human soluble TNFR1 (sTNFR1) (Homo sapiens, UniProt P19438)
T1 construct: made in house; host or cells: Sf21 (baculovirus)
T1 sequence (P19438 with tags, fused parts or gaps): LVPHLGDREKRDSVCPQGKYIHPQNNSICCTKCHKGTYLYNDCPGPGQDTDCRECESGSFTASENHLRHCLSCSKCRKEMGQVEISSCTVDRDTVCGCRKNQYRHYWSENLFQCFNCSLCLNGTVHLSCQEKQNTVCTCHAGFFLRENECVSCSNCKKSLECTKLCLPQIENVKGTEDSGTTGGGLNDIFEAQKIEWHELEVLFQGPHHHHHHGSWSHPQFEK
Test: Human sTNFR1-peptide displacement assay (LanthaScreen Eu TR-FRET binding assay)
Experimental: A. Procedure for Human sTNFR1-Peptide Displacement Assay
The affinity was determined using LanthaScreen Eu-based time-resolved fluorescence resonance energy transfer (TR-FRET)-based binding assay.
A TR-FRET assay measuring the displacement of biotinylated peptide SEQ ID NO. 1 from human soluble TNFR1 (sTNFR1) in a pre-formed complex by a macrocyclic peptide yields the affinity (Kd^app) of the cyclic peptide for sTNFR1. The reagents for the assay include: the C′-terminally 6His-tagged sTNFR1 (residues 1-211) protein purified from a Sf21 baculovirus expression system, the biotin-tagged B0372 peptide described in section “Preparation of Final Compounds”, part E, the LanthaScreen™ anti-His Tag Europium donor (Life Technologies Corporation (San Diego, CA), cat. #PV5597), and a streptavidin-conjugate Alexa Fluor™ 647 acceptor (Invitrogen (Waltham, MA), cat. #S32357). Time-resolved TR-FRET is achieved when sTNFR1 is bound to biotinylated peptide SEQ ID NO. 1 through coupling of the donor and acceptor FRET pair.
100 nM biotinylated peptide SEQ ID NO. […] 100 nM biotinylated peptide SEQ ID NO. 1 was chosen as it reflects the ˜Kd for this complex. After 30 min at ambient temperature, each test peptide (2 mM stock in DMSO) is titrated in a 20 point, ˜3-fold discrete dose-response using an acoustic-dispense liquid handler. Specifically, 80 nL of peptide/DMSO is transferred into a ProxiPlate-384 Plus 384-well assay plate (PerkinElmer, cat. #6008289). To this plate, 8 μL of the previously formed sTNFR 1-biotinylated peptide SEQ ID NO. 1 complex is added and allowed to reach binding equilibrium with the test peptide at ambient temperature for 90 min.
The TR-FRET signal is measured with the following EnVision® settings: excitation laser at 337 nm; emission1=615 nm, emission2=665 nm, LANCE/DELFIA dichroic mirror, delay time=[…]. The signal of each well is determined as the ratio of the emission at 665 nm to that at 615 nm. Percent displacement is determined by normalization to control wells containing DMSO (0%) or a saturating concentration of a displaceable peptide (100%). The %-effect as a function of peptide concentration is fit to a five-parameter logistic fit based on the Morrison equation to account for tight binding kinetics.

SMILES | Kd [nM] | IC50 [nM]
CCCCC[C@@H]1NC(=O)[C@@H]2CC[C@@H](C2)NC(=O)[C@H]([C@@H](C)c2c[nH]c3c(OC)cccc23)NC(=O)CN(C)C(=O)[C@H](Cc2cccc(C(N)=O)c2)NC(=O)[C@H](Cc2ccc(C(=O)O)cc2)NC(=O)[C@](C)(CO)NC(=O)[C@H](Cc2c[nH]c3c(Br)cccc23)NC(=O)[C@H](Cc2ccc(C(=O)O)cc2)NC(=O)[C@H](CC(N)=O)NC(=O)[C@H]2C[C@H](O)CN2C(=O)[C@H](Cc2c[nH]c3ccccc23)NC(=O)[C@@H]2CNCCN2C(=O)[C@H](Cc2ccncc2)NC1=O [SEQ ID NO. 85] (cyclo([4Pal][Pip(4-aza)]W[dHyp]N[Phe(4-COOH)][Trp(7-Br)][αMeS][Phe(4-COOH)][Phe(3-CONH2)][Sar][Trp(βS-Me,7-OMe)][X1][Ahp(2)])) | 0.11 | –
C[C@@H](c1c[nH]c2ccccc12)[C@@H]1NC(=O)[C@H](CN)NC(=O)[C@H](Cc2ccc(O)cc2)NC(=O)[C@H](CCCN=[N+]=[N-])NC(=O)CSC[C@@H](C(N)=O)NC(=O)[C@](C)(Cc2c[nH]c3ccccc23)NC(=O)CN(C)C(=O)[C@H](Cc2c[nH]cn2)NC(=O)[C@H](Cc2ccc(C(=O)O)cc2)NC(=O)[C@](C)(CO)NC(=O)[C@H](Cc2c[nH]c3c(Cl)cccc23)NC(=O)[C@H](Cc2ccncc2)NC(=O)[C@H](CC(N)=O)NC(=O)[C@H]2CCCN2C1=O [SEQ ID NO. 146] ({CH2CO}-[Orn(N3)]Y[Dap][Trp(βS-Me)][dP]N[4Pal][Trp(7-Cl)][αMeS][Phe(4-COOH)]H[Sar][αMeW]C-NH2; thioether N-14) | – | 0.59
CCCCC[C@@H]1NC(=O)[C@@H]2CC[C@@H](C2)NC(=O)[C@H]([C@@H](C)c2c[nH]c3c(OC)cccc23)NC(=O)CN(C)C(=O)[C@H](Cc2cn(CC(=O)O)c3ccccc23)NC(=O)[C@H](Cc2ccc(C(N)=O)cc2)NC(=O)[C@](C)(CO)NC(=O)[C@H](Cc2c[nH]c3c(C#N)cccc23)NC(=O)[C@H](Cc2ccc(C(=O)O)cc2)NC(=O)[C@H](CC(N)=O)NC(=O)[C@H]2C[C@H](N)CN2C(=O)[C@H](Cc2c[nH]c3ccccc23)NC(=O)[C@@H]2CC[C@@H](O)CN2C(=O)[C@H](Cc2ccncc2)NC1=O [SEQ ID NO. 150] (cyclo([4Pal][Pip(5R-OH)]W[dPro(4S-NH2)]N[Phe(4-COOH)][Trp(7-CN)][αMeS][Phe(4-CONH2)][Trp(1-CH2COOH)][Sar][Trp(βS-Me,7-OMe)][X1][Ahp(2)])) | 0.23 | –
CCCC[C@@H]1NC(=O)[C@@H]2CC[C@@H](C2)NC(=O)[C@H]([C@@H](C)c2c[nH]c3c(OC)cccc23)NC(=O)CN(C)C(=O)[C@H](Cc2ccc(O)cc2)NC(=O)[C@H](Cc2ccc(C(N)=O)cc2)NC(=O)[C@](C)(CO)NC(=O)[C@H](Cc2c[nH]c3c(Cl)cccc23)NC(=O)[C@H](Cc2ccc(NC(N)=O)cc2)NC(=O)[C@H](CC(N)=O)NC(=O)[C@H](CCC(=O)O)N(C)C(=O)[C@H](Cc2c[nH]c3ccccc23)NC(=O)[C@@H]2CC[C@@H](O)CN2C(=O)[C@H](Cc2ccncc2)NC1=O [SEQ ID NO. 165] (cyclo([4Pal][Pip(5R-OH)]W[NMeE]N[Phe(4-NHCONH2)][Trp(7-Cl)][αMeS][Phe(4-CONH2)]Y[Sar][Trp(βS-Me,7-OMe)][X1][Nle])) | 0.18 | –
CCCC[C@@H]1NC(=O)CSC[C@@H](C(N)=O)NC(=O)[C@H]([C@@H](C)c2c[nH]c3c(OC)cccc23)NC(=O)CN(C)C(=O)[C@H](Cc2ccc(O)cc2)NC(=O)[C@H](Cc2ccc(C(=O)O)cc2)NC(=O)[C@](C)(CO)NC(=O)[C@H](Cc2c[nH]c3c(Cl)cccc23)NC(=O)[C@H](Cc2ccncc2)NC(=O)[C@H](CC(N)=O)NC(=O)CN(CCCO)C(=O)[C@H](Cc2c[nH]c3ncccc23)NC(=O)[C@@H]2CCCCN2C(=O)[C@H](Cc2ccncc2)NC1=O [SEQ ID NO. 170] ({CH2CO}-[Nle][4Pal][Pip][Trp(7-aza)][X61]N[4Pal][Trp(7-Cl)][αMeS][Phe(4-COOH)]Y[Sar][Trp(βS-Me,7-OMe)]C-NH2; thioether N-14) | 0.56 | 0.6
